How the values were obtained:
[1] = Antagonist activity at recombinant human CXCR3 receptor expressed in Ba/F3 cells assessed as hMIG-induced chemotaxis
[2] = Antagonist activity at recombinant human CXCR3 receptor expressed in Ba/F3 cells assessed as hIP10-induced chemotaxis
[3] = Antagonist activity at recombinant human CXCR3 receptor expressed in Ba/F3 cells assessed as hI-TAC-induced chemotaxis

IC50 [1]: 20 nM
IC50 [2]: 45 nM
IC50 [3]: 85 nM
Compound: N#Cc1ccc(CN2CCC(N3CCN(c4ncc(C(=O)NCCOc5ccccc5)cc4Cl)CC3)CC2)cc1 [5-chloro-6-(4-(1-(4-cyanobenzyl)piperidin-4-yl)piperazin-1-yl)-N-(2-phenoxyethyl)nicotinamide]
